Test results as given in US20260275412A1, “A GENE SIGNATURE FOR DIAGNOSING STIMULATOR OF INTERFERON GENES (STING)-ASSOCIATED VASCULOPATHY WITH ONSET IN INFANCY (SAVI)” (INSTITUT NATIONAL DE LA SANTÉ ET DE LA RECHERCHE MÉDICALE, priority 2023, published 2026).

Columns and labels:
[1] = tested on: STING; assay: in vitro model of STING activation: PBMCs with ADUS100 with or without JAK-inhibitor, scRNA-seq; format: cell-based, human; details: 4 hours
Source text: Sequencing reads were demultiplexed and aligned to the human reference genome (hg38), and counted using the CellRanger Pipeline v6.0. Unfiltered RNA UMI counts were loaded into Seurat v4 for quality control, data integration and downstream analyses. Apoptotic cells and empty sequencing capsules were excluded by filtering out cells with low number of features (Filters were defined based on the batch: STING1: nFeature <300; STING2 and STING3<500; IFN-stim <750) or a mitochondrial content higher than 20%. Data from each sample were normalized using sctransform, before batch correction using Seurat's FindIntegratedAnchors, on the 3,000 most variable features. For the IFN-β dataset, for computational efficiency, integration anchors were determined with a canonical correlation analysis, using all unstimulated samples as reference. For the SAVI dataset, to avoid over-aligning samples, a reciprocal principal component analysis (PCA) was used to find integration anchors. On the resulting integrated datasets, we computed the PCA on the 3000 most variable genes, before computing a UMAP (on 20 PCs for SAVI and 30 PCs for IFN-stimulation). Community detection was performed using the graph-based modularity-optimization Louvain algorithm from Seurat's FindClusters function with a 1.2 resolution. Cell types labels were assigned to resulting clusters based on a manually curated list of marker genes as well as previously defined signatures of the PBMC subtypes.^58 Despite filtering for high quality cells, 11/34 clusters in the SAVI dataset and 7/36 in the IFN-β dataset stood out as poor quality clusters and were removed from further analysis. They represented low UMI cells, dying cells, cycling cells, doublets, or contaminants (progenitor cells, basophils, platelets or megakaryocytes). […] Transcriptomic signatures scores were calculated using Seurat's AddModuleScore function. […]
Human PBMC samples were obtained from Promocell (C-12907 promocell, lot 434Z036). […] Libraries were sequenced on a Novaseq (Illumina), with 26 cycles of read 1, 8 cycles of i7 index and 98 cycles of read 2. […]

[2] = tested on: SAVI patients; details: SAVI patients treated with JAK-inhibitors; cited from earlier work
[3] = tested on: T cell; details: cited from earlier work
[4] = PBMCs from a healthy donor, ADUS100 3 mM, vs unstimulated

SMILES | score of NF-κB activation [1, 4] | score of type I IFN response [1, 4] | STING-associated signature (21 genes) ([1]; monocytes and DCs of stimulated PBMCs) | symptoms of SAVI patients [2] | T cell proliferation [3]
Nc1ncnc2c1ncn2[C@@H]1O[C@@H]2COP(=O)([S-])O[C@@H]3[C@H](O)[C@@H](COP([O-])(=S)O[C@H]2[C@H]1O)O[C@H]3n1cnc2c(N)ncnc21.[Na+].[Na+] (some centres unmarked) [ADUS100] | increased | increased | strong increase | – | –
C[C@@H]1CCN(C(=O)CC#N)C[C@@H]1N(C)c1ncnc2[nH]ccc12 [Tofacitinib, tofacitinib] | – | – | – | partial improvements of the symptoms | inhibit T cell proliferation
